# Data: patent US10584115B2, “Substituted pyridine and pyrazine BMI-1 inhibitors” (PTC Therapeutics, Inc., priority 2013, dated 2020)
# Read-outs that look alike come from different tables or passages of the source.
# Test system: Bmi-1 protein
# Assay: Sandwich ELISA Assay (Bmi-1 protein level in HT-1080 cells after compound treatment)
# Format: cell-based
# Summary of the method: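 Sandwich ELISA quantified Bmi-1 protein against recombinant standard (125–8000 pg/mL), with lysates captured overnight at 4 °C and signal by HRP/TMB at 450 nm (570 nm reference). Lysates came from HT-1080 cells incubated 40–48 h with test compounds in 0.5% DMSO.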
# [1] = Table 1, Bmi-1 sandwich ELISA, read-out: ELISA EC50 value for Bmi-1 protein
# [2] = read-out: ELISA EC50 value for Bmi-1 protein, Table 1, Bmi-1 sandwich ELISA
SMILES,EC50 [1] [nM],EC50 [2] [nM]
"Cc1nc2ccccc2n1-c1cc(N)cc(Nc2ccc(F)cc2)n1 [compound 605, N^2-(4-fluorophenyl)-6-(2-methyl-1H-benzimidazol-1-yl)pyridine-2,4-diamine]",100 to 3000,–
"Cc1ccc(Nc2cncc(-n3c(C)nc4ccccc43)n2)c(N)c1 [compound 563, 4-methyl-N^1-[6-(2-methyl-1H-benzimidazol-1-yl)pyrazin-2-yl]benzene-1,2-diamine]",10 to 100,–
"Fc1cnc2nc(C3CC3)n(-c3cncc(Nc4ccc(OC(F)(F)F)cc4)n3)c2c1 [compound 456, 6-(2-cyclopropyl-6-fluoro-1H-imidazo[4,5-b]pyridin-1-yl)-N-[4-(trifluoromethoxy)phenyl]pyrazin-2-amine]",100 to 3000,–
"CCc1cnc(C)n1-c1cncc(Nc2ccc(C(F)(F)F)cc2)n1 [Cpd 372, 6-(5-ethyl-2-methyl-1H-imidazol-1-yl)-N-[4-(trifluoromethyl)phenyl]pyrazin-2-amine]",100 to 3000,–
"Cc1nc2cc(F)c(F)cc2n1-c1cncc(Nc2ccc(NCCN(C)C)nc2)n1 [compound 430, N^5-[6-(5,6-difluoro-2-methyl-1H-benzimidazol-1-yl)pyrazin-2-yl]-N^2-[2-(dimethylamino)ethyl]pyridine-2,5-diamine]",100 to 3000,–
"N#Cc1ccc(Nc2cncc(-c3c(C(F)(F)F)nc4ccc(F)cn34)n2)cc1 [compound 668, 4-({6-[6-fluoro-2-(trifluoromethyl)imidazo[1,2-a]pyridin-3-yl]pyrazin-2-yl}amino)benzonitrile]",100 to 3000,–
"COc1ccc(Nc2cncc(-n3c(C)nc4ccccc43)n2)cc1 [compound 561, N-(4-methoxyphenyl)-6-(2-methyl-1H-benzimidazol-1-yl)pyrazin-2-amine]",1 to 10,–
"Cc1ccc2nc(C)n(-c3cncc(Nc4ccc(C(F)(F)F)cc4)n3)c2c1 [compound 343, 6-(2,6-dimethyl-1H-benzimidazol-1-yl)-N-[4-(trifluoromethyl)phenyl]pyrazin-2-amine]",1 to 10,–
"N#Cc1cc(Nc2ccc(OC(F)(F)F)cc2)nc(-c2c(C(F)(F)F)nc3ccc(F)cn23)c1 [compound 222, 2-[6-fluoro-2-(trifluoromethyl)imidazo[1,2-a]pyridin-3-yl]-6-{[4-(trifluoromethoxy)phenyl]amino}pyridine-4-carbonitrile]",10 to 100,–
"Cc1nc2ccccc2n1-c1c[n+]([O-])cc(Nc2ccc(OC(F)F)cc2)n1 [compound 531, N-[4-(difluoromethoxy)phenyl]-6-(2-methyl-1H-benzimidazol-1-yl)pyrazin-2-amine 4-oxide]",10 to 100,–
"Cc1nc2cc(F)c(F)cc2n1-c1cc(N)cc(Nc2ccc(C(F)(F)F)cc2)n1 [compound 231, 6-(5,6-difluoro-2-methyl-1H-benzimidazol-1-yl)-N^2-[4-(trifluoromethyl)phenyl]pyridine-2,4-diamine]",10 to 100,–
"Cc1nc2ncc(F)cn2c1-c1cncc(Nc2ccc(C(F)(F)F)cc2)n1 [compound 453, 6-(6-fluoro-2-methylimidazo[1,2-a]pyrimidin-3-yl)-N-[4-(trifluoromethyl)phenyl]pyrazin-2-amine]",10 to 100,–
"C#Cc1ccc(Nc2cncc(-n3c(C)nc4ccccc43)n2)cc1 [compound 665, N-(4-ethynylphenyl)-6-(2-methyl-1H-benzimidazol-1-yl)pyrazin-2-amine]",100 to 3000,–
"COc1ccc2nc(C(F)(F)F)c(-c3cncc(Nc4ccc(C#N)cc4)n3)n2c1 [Cpd 49, 4-({6-[6-methoxy-2-(trifluoromethyl)imidazo[1,2-a]pyridin-3-yl]pyrazin-2-yl}amino)benzonitrile]",100 to 3000,–
"Cc1nc2ccccc2n1-c1cncc(Nc2ccc(B3OC(C)(C)C(C)(C)O3)cc2)n1 [compound 433, 6-(2-methyl-1H-benzimidazol-1-yl)-N-[4-(4,4,5,5-tetramethyl-1,3,2-dioxaborolan-2-yl)phenyl]pyrazin-2-amine]",100 to 3000,–
"Cc1nc2ccccc2n1-c1cncc(Nc2ccc(OC(F)(F)F)cc2)n1 [compound 19, 6-(2-methyl-1H-benzimidazol-1-yl)-N-[4-(trifluoromethoxy)phenyl]pyrazin-2-amine]",100 to 3000,–
"FC(F)(F)c1ccc(Nc2cncc(-c3cccc4[nH]ccc34)n2)cc1 [compound 407, 6-(1H-indol-4-yl)-N-[4-(trifluoromethyl)phenyl]pyrazin-2-amine]",100 to 3000,–
"FC(F)Oc1ccc(Nc2cccc(-c3c(C(F)(F)F)nc4cnccn34)n2)cc1 [compound 196, N-[4-(difluoromethoxy)phenyl]-6-[2-(trifluoromethyl)imidazo[1,2-a]pyrazin-3-yl]pyridin-2-amine]",10 to 100,–
"Fc1ccc2ncc(-c3cncc(Nc4ccc(C(F)(F)F)cc4)n3)n2c1 [compound 308, 6-(6-fluoroimidazo[1,2-a]pyridin-3-yl)-N-[4-(trifluoromethyl)phenyl]pyrazin-2-amine]",100 to 3000,–
"Cc1nc2cc(F)c(F)cc2n1-c1cc(N)c(F)c(Nc2ccc(C(F)(F)F)cc2)n1 [compound 505, 6-(5,6-difluoro-2-methyl-1H-benzimidazol-1-yl)-3-fluoro-N^2-[4-(trifluoromethyl)phenyl]pyridine-2,4-diamine]",10 to 100,–
"Cc1nc2ncccc2n1-c1cncc(Nc2ccc(OC(F)F)cc2)n1 [compound 85, N-[4-(difluoromethoxy)phenyl]-6-(2-methyl-1H-imidazo[4,5-b]pyridin-1-yl)pyrazin-2-amine]",10 to 100,–
"Cc1ccc(Nc2cncc(-n3c(C)nc4ccccc43)n2)cc1 [compound 562, 6-(2-methyl-1H-benzimidazol-1-yl)-N-(4-methylphenyl)pyrazin-2-amine]",1 to 10,–
"Cc1nc2ccccc2n1-c1cc(N)cc(Nc2ccc(OC(F)F)cc2)n1 [compound 496, N^2-[4-(difluoromethoxy)phenyl]-6-(2-methyl-1H-benzimidazol-1-yl)pyridine-2,4-diamine]",10 to 100,–
"Cc1ccc(Nc2cncc(-n3c(C)nc4cc(F)c(F)cc43)n2)cc1 [compound 574, 6-(5,6-difluoro-2-methyl-1H-benzimidazol-1-yl)-N-(4-methylphenyl)pyrazin-2-amine]",100 to 3000,–
"Cc1nc(Cl)c(Cl)n1-c1cncc(Nc2ccc(C(F)(F)F)cc2)n1 [Cpd 297, 6-(4,5-dichloro-2-methyl-1H-imidazol-1-yl)-N-[4-(trifluoromethyl)phenyl]pyrazin-2-amine]",–,100 to 3000
"Cc1nc2c(F)cccc2n1-c1cc(C#N)cc(Nc2ccc(OC(F)F)cc2)n1 [Cpd 436, 2-{[4-(difluoromethoxy)phenyl]amino}-6-(4-fluoro-2-methyl-1H-benzimidazol-1-yl)pyridine-4-carbonitrile]",10 to 100,–
"CCc1nc2ncc(Cl)cc2n1-c1cncc(Nc2ccc(C(F)(F)F)cc2)n1 [compound 327, 6-(6-chloro-2-ethyl-1H-imidazo[4,5-b]pyridin-1-yl)-N-[4-(trifluoromethyl)phenyl]pyrazin-2-amine]",1 to 10,–
"Cn1nc2c(c1-c1cncc(Nc3ccc(C(F)(F)F)cc3)n1)CCCC2 [compound 454, 6-(2-methyl-4,5,6,7-tetrahydro-2H-indazol-3-yl)-N-[4-(trifluoromethyl)phenyl]pyrazin-2-amine]",–,1 to 10
"Cc1nn(C)c(Cl)c1-c1cncc(Nc2ccc(OC(F)(F)F)cc2)n1 [compound 414, 6-(5-chloro-1,3-dimethyl-1H-pyrazol-4-yl)-N-[4-(trifluoromethoxy)phenyl]pyrazin-2-amine]",10 to 100,–
